Tested on: rats
Assay: Morris water maze
Assay type: in vivo, rat
Protocol: The potential of MP-III-022 to affect cognitive performance of rats was assessed in 2 well-validated behavioral models. First, Morris water maze experiments were performed in a 2 m diameter circular pool filled to a height of 30 cm with water at 22±1° C. The escape platform (15 cm×10 cm) was submerged 2 cm below the water surface. All experimental details were as described in Savic et al. (Int. J. Neuropsychopharmacol. 2009, 12, 1179-1193). On each of the five consecutive days rats were given one swimming block, consisting of four trials. For each trial the rat was placed in the water at one of four pseudo-randomly determined starting positions. Once the rat has found and mounted the escape platform it was permitted to remain on the platform for 15 s. […] During the acquisition phase, treatments were applied once daily before the swimming block. On the sixth day, rats were given a treatment-free probe test (60 s) without the platform. The probe test was started from the novel, most distant location. Dependent variables chosen for tracking during the acquisition trials were: escape latency (s), total distance traveled (m), path efficiency (the ratio of the shortest possible path length to actual path length), % of distance swam in the peripheral annulus and mean speed (m/s). The selected parameters in the probe test were the distance swam in the target zone […] and % of the distance swam in the peripheral annulus. We tested the effects of 1, 2.5 and 10 mg/kg MP-III-022 and 2 mg/kg diazepam as control drug. The doses of MP-III-022 were selected so that they elicit a mild, moderate and strong positive modulation of α5GABAARs, respectively, in accordance with the analysis of thorough pharmacokinetic and electrophysiological data presented in Stamenic et al. (Eur. J. Pharmacol. 2016, 791, 433-443). The data from the acquisition days in the Morris water maze were averaged for each rat (total data/total number of trials per day) and analyzed using two-way ANOVA with repeated measures (factors: Treatment and Days) with Days as the repeated measure. In the case of significant interaction, separate one-way ANOVAs were conducted to assess the influence of treatment within individual levels of factor Days. The data from the probe test were assessed using one-way ANOVA.

## C#Cc1ccc2c(c1)C(c1ccccc1F)=N[C@H](C)c1c(C(=O)NC)ncn1-2 [MP-III-022]
1 mg/kg
  spatial learning and memory (water maze, probe test): significant improvement in spatial learning and memory processes
1 mg/kg vs 2 mg/kg diazepam and 10 mg/kg MP-III-022 groups
  escape latency, distance, distance in peripheral ring, path efficiency (acquisition): shorter escape latencies, shorter distances, swam less distance in the peripheral ring and had higher path efficiencies
1 mg/kg, Day II of acquisition
  path efficiency on Day II: higher path efficiencies compared to the control and all other treatment groups
MP-III-022 10 mg/kg once daily before swimming block
  spatial learning during acquisition in the water maze: spatial learning incapacitation indistinguishable from that induced by diazepam 2 mg/kg
High doses
  spatial learning and memory (water maze, probe test): mimic the cognitive disruption effect of diazepam
